The text below walks through data of patent US6544727B1, “Methods and devices for the removal of psoralens from blood products” (Cerus Corporation, priority 1995, dated 2003).

The test system of data set [1] is Salmonella tester strain TA1537. The data set can be described thus: Ames test, strain TA1537. Particulars: TA1537 − S9; 10 μg/plate. Here is the method:
(§1) In this example the compounds of the present invention are tested for their dark mutagenicity using an Ames assay. The procedures used for the Salmonella mutagenicity test as described in detail by Maron and Ames were followed exactly. Maron, D. M. and B. N. Ames, Mutation Research 113: 173 ( 1983). A brief description for each procedure is given here. The tester strains TA97a, TA98, TA100, TA102, TA1537 and TA1538 were obtained from Dr. Ames. TA97a, TA98, TA1537 and TA1538 are frameshift tester strains. TA100 and TA102 are base-substitution tester strains. Upon receipt each strain was cultured under a variety of conditions to confirm the genotypes specific to the strains.
(§2) The first tests done with the strains were to determine the range of spontaneous reversion for each of the strains. With each mutagenicity experiment the spontaneous reversion of the tester strains to histidine independence was measured and expressed as the number of spontaneous revertants per plate. This served as the background controls.
(§3) For all experiments, the pre-incubation procedure was used. In this procedure one vial of each tester strain was thawed and 20 μL of this culture was added to 6 mL of Oxoid Nutrient Broth #2. This solution was allowed to shake for 10 hours at 37° C. In the pre-incubation procedure, 0.1 mL of this overnight culture was added to each of the required number of sterile test tubes. To half of the tubes 0.5 mL of a 10% S-9 solution containing Aroclor 1254 induced rat liver extract (Molecular Toxicology Inc., Annapolis, Md.), and MgCl2, KCl, glucose-6-phosphate, NADP, and sodium phosphate buffer (Sigma, St. Louis, Mo.) were added. To the other half of the tubes 0.5 mL of 0.2M sodium phospate buffer, pH 7.4, was used in place of the S-9 mixture (the—S9samples). Finally 0.1 mL of the test solution containing either 0, 0.1, 0.5, 1, 5, 10, 50, 100, 250, or 500 μg/mL of the test compound was added. The 0.7 mL mixture was vortexed and then pre-incubated while shaking for 20 minutes at 37° C. After shaking, 2 mL of molten top agar supplemented with histidine and biotin were added to the 0.7 mL mixture and immediately poured onto a minimal glucose agar plate (volume of base agar was 20 mL). The top agar was allowed 30 minutes to solidify and then the plates were inverted and incubated for 44 hours at 37° C. After incubation the number of revertant colonies on each plate were counted. […] (“n” represents the number of replicates performed for each data point.)
For orientation: In the Ames test, an excess of revertant colonies over the control signals mutagenicity.

For data set [2], the system named is Salmonella tester strain TA98. Description: Ames test, strain TA98. Particulars: TA98 − S9; 10 μg/plate. Here is the method:
as §1, §2
For all experiments, the pre-incubation procedure was used. In this procedure one vial of each tester strain was thawed and 20 μL of this culture was added to 6 mL of Oxoid Nutrient Broth #2. This solution was allowed to shake for 10 hours at 37° C. In the pre-incubation procedure, 0.1 mL of this overnight culture was added to each of the required number of sterile test tubes. To half of the tubes 0.5 mL of a 10% S-9 solution containing Aroclor 1254 induced rat liver extract (Molecular Toxicology Inc., Annapolis, Md.), and MgCl2, KCl, glucose-6-phosphate, NADP, and sodium phosphate buffer (Sigma, St. Louis, Mo.) were added. To the other half of the tubes 0.5 mL of 0.2M sodium phospate buffer, pH 7.4, was used in place of the S-9 mixture (the—S9samples). […] The 0.7 mL mixture was vortexed and then pre-incubated while shaking for 20 minutes at 37° C. After shaking, 2 mL of molten top agar supplemented with histidine and biotin were added to the 0.7 mL mixture and immediately poured onto a minimal glucose agar plate (volume of base agar was 20 mL). The top agar was allowed 30 minutes to solidify and then the plates were inverted and incubated for 44 hours at 37° C. After incubation the number of revertant colonies on each plate were counted. […] (“n” represents the number of replicates performed for each data point.)

Data set [3] deals with Salmonella tester strain TA102. Description: Ames test, strain TA102. Particulars: TA102 − S9; 100 μg/plate. Here is the method:
as §1, §2, §3

Another data set deals with HIV-1. As to conditions: 1 minute irradiation.
For another data set, the system named is R17 bacteriophage. The data set can be described thus: R17 bacteriophage inactivation assay, varying compound concentration. Format: cell-based. Particulars: for R17 Log Kill: starting titer approx. 7.1 logs; for R17 inactivation efficiency compared with AMT or 8-MOP (in words): varying concentration, Tables 6-9, FIGS. 6-10. On the procedure:
An r-17 bacteriophage assay was used in this example to predict pathogen inactivation efficiency and to determine nucleic acid binding of the photoreactive binding compounds of the present invention. In the r-17 assay, the bacteriophage was placed in a solution with each compound tested and was then irradiated. The ability of the phage to subsequently infect bacteria and inhibit their growth was measured. The bacteriophage was selected for its relatively accessible nucleic acid such that the culture growth inhibition would accurately reflect nucleic acid damage by the test compounds. The bacteriophage assay for nucleic acid binding to test compounds offers a safe and inexpensive procedure to identify compounds likely to display efficient pathogen inactivation.
The R17 was grown up in Hfr 3000 bacteria, approximate titer 5×10^11. (R17 and Hfr 3000 were obtained from American Tissue Culture Collection (ATCC), Washington, D.C.) The R17 phage stock was added to a solution of 15% fetal bovine serum in Dulbecco's Modified Eagles Medium (DMEM) to a final phage concentration of 10^9/mL. An aliquot (0.5 mL) was transferred to a 1.5 mL snap-top polyethylene tube. An aliquot (0.004-0.040 mL) of the test compound stock solution prepared in water, ethanol or dimethylsulfoxide at 0.80-8.0 mM was added to the tube. Compounds were tested at concentrations between 4 μM and 320 μM. […] The tubes were placed in a light device as described in EXAMPLE 1 and irradiated for between 1 and 10 minutes. Sterile 13 mL dilution tubes were prepared; each test compound required one tube with 0.4 mL of Luria broth (LB) and five tubes containing 0.5 mL of LB broth. To make the dilutions, a 0.100 mL aliquot of the irradiated solution of phage and test compound was added to the first dilution tube of 0.4 mL of media then 0.020 mL of this solution was added to the second tube of 0.5 mL medium (1:25). The second solution was then diluted serially (1:25) into the remaining tubes. To each diluted sample was added 0.050 mL of Hfr 3000 bacteria cultured overnight and 3 mL of molten LB top agar and the mixed materials were poured onto LB broth plates. After the top agar hardened, the plates were incubated at 37° C. overnight. The plaque forming units were then counted the following morning and the titer of the phage remaining after phototreatment was calculated based on the dilution factors.
The following controls were run: the “phage only” in which phage was not treated with test compound and not irradiated (listed as “starting titer” in the tables below); the “UV only” in which the phage was irradiated in the absence of test compound; and the “dark” control in which the phage/test compound solution was not irradiated before it was diluted and plated.

The test system of the next data set is mouse reticulocytes. Particulars: positive control, 30 mg/kg administered only once, on day three, blood on day 5; 30 mg/kg. On the procedure: Male Balb/c mice were then injected with 0.1 ml of a compound solution via the tail vein. At least 3 mice were injected per dose level. Saline only was used as a negative control. For a positive control, cyclophosphamide (cycloPP) was administered at a dose of 30 mg/kg. In the experimental group, the injections were repeated once per day for four days. In the positive control group, the sample was administered only once, on day three. On day 5, several microliters of blood were withdrawn from each subject and smeared on a glass slide. Cells were fixed in absolute methanol and stored in a slide rack.
For analysis, cells were stained with acridine orange and visualized under a fluorescence microscope by counting: (i) the number of reticulocytes per 5000 erythrocytes; and (ii) the number of micronucleated reticulocytes per 1000 reticulocytes. Reticulocytes were distinguished by their red fluorescence due to the presence of RNA. Micronuclei were distinguished by their green fluorescence due to the presence of DNA. The percentage of reticulocytes (%PCE) was then calculated. A decrease in the frequency of […] in the percentage of reticulocytes, is an indication of bone marrow toxicity. The percentage of reticulocytes with micronuclei (%PCE with MN) was also calculated. An increase in %PCE with MN is a measure of clastogenicity.
After initial results were determined, the experiment was repeated using increased dose levels, until: (i) Micronucleus formation was seen; or (ii) Bone marrow toxicity was observed; or (iii) The lethal dose was reached; or (iv) A dose of 5 g/kg was administered.

Data set [4] relates to Salmonella tester strain TA100. As to conditions: TA100 − S9; 1.5 μg/plate. On the procedure: as §1, §2, §3
Data set [5] concerns Salmonella tester strain TA1538. As to conditions: TA1538 − S9; 1.5 μg/plate. On the procedure: as §1, §2, §3
[6] abbreviates: 16 μM, starting titer approximately 5 logs (Table 10).
The mark [7] stands for this setting: 32 μM, starting titer approximately 5 logs (Table 10).
[8] abbreviates: 64 μM, starting titer approximately 5 logs (Table 10).

Like-named read-outs stand apart in the source and are kept apart here.

`Nc1c2ccccc2nc2ccccc12` [9-Amino-acridine, reference compound]: the “revertant colonies per plate” value in data set [1] and in data set [2] was 284 in each case.
As to `OO` [hydrogen peroxide], in data set [3], the “revertant colonies per plate” value came out at 660.
With `Cc1oc2c(C)c3oc(=O)cc(C)c3cc2c1CNCCCOCCCCOCCN` [Compound 9, 4′-(13-amino-2-aza-6,11-dioxa)tridecyl-4,5′,8-trimethylpsoralen], the “HIV Log Kill” value in the data set with HIV-1 (16 μM, starting titer approximately 5.4 logs (Table 11)) came out at 0.8 log; in the data set on HIV-1 (32 μM, starting titer approximately 5.4 logs (Table 11)), 1.4 log; in the data set with HIV-1 (64 μM, starting titer approximately 5.4 logs (Table 11)) it was 2.7 log.
`Cc1oc2c(C)c3oc(=O)cc(C)c3cc2c1CNCCCN` [Compound 5, 4′-(5-amino-2-aza)pentyl-4,5′,8-trimethylpsoralen]: the “R17 Log Kill” value in the data set with R17 bacteriophage (16 μM, 1 minute irradiation = 1.2 J/cm^2 (Table 8)) is reported as 5.6 log; in the data set with R17 bacteriophage (32 μM, 1 minute irradiation = 1.2 J/cm^2 (Table 8)), over 6.1 log; in the data set with R17 bacteriophage (64 μM, 1 minute irradiation = 1.2 J/cm^2 (Table 8)), over 6.1 log. In addition, the “R17 inactivation efficiency compared with AMT or 8-MOP (in words)” value in the data set with R17 bacteriophage is reported as “significantly higher inactivation efficiency than does AMT”. Further, the results for the “HIV Log Kill” value in the data set on HIV-1 (setting [6]), in the data set with HIV-1 (setting [7]) and in the data set on HIV-1 (setting [8]) were 0.9 log, 1.3 log and over 2.6 log, respectively.
Take `O=P1(N(CCCl)CCCl)NCCCO1` (stereo not drawn) [CylcoPP, cyclophosphamide, reference compound]: in the data set on mouse reticulocytes, the “PCE + MN (%)” value turned out to be 2.09 ± 0.17% and the “PCE/RBC (%)” value was determined as 0.99 ± 0.33%.
On to `Cc1cc(=O)oc2c(C)c3oc(CNCCN)c(C)c3cc12` [Compound 16, 5′-(4-amino-2-aza)butyl-4,4′,8-trimethylpsoralen], for which, in the data set on R17 bacteriophage, the “R17 inactivation efficiency compared with AMT or 8-MOP (in words)” value is reported as “significantly higher inactivation efficiency than does AMT”.
For `Cc1oc2c(C)c3oc(=O)cc(C)c3cc2c1COCCOCCN` [Compound 7, 4′-(7-amino-2,5-oxa)heptyl-4,5′,8-trimethylpsoralen], the “R17 Log Kill” value with R17 bacteriophage (16 μM, 1 minute irradiation (Table 9)) was over 6 log; in the data set on R17 bacteriophage (32 μM, 1 minute irradiation (Table 9)), over 6 log; in the data set on R17 bacteriophage (64 μM, 1 minute irradiation (Table 9)), over 6 log. Also, the “HIV Log Kill” value in the data set with HIV-1 (setting [6]) amounted to 0.8 log; in the data set on HIV-1 (setting [7]) it was 2.1 log; in the data set on HIV-1 (setting [8]) it was 3.5 log.
For the compound `[N-]=[N+]=[N-]` [Sodium Azide, sodium azide, reference compound], the “revertant colonies per plate” value in data set [4] and in data set [5] was 965 each time.
For `Cc1oc2c(C)c3oc(=O)cc(C)c3cc2c1COCCOCCNCCCCN` [Compound 8, 4′-(12-amino-8-aza-2,5-dioxa)dodecyl-4,5′,8-trimethylpsoralen], the “HIV Log Kill” value in the data set with HIV-1 (setting [6]) is 1.1 log; with HIV-1 (setting [7]) it was 1.9 log; in the data set with HIV-1 (setting [8]), 3.7 log.
